Among the data in the NIST ThermoML archive (doi:10.1021/je100033s) are mass density, Normal boiling temperature and refractive index values, retold here.

The structures appear in SMILES notation. ± gives the expanded uncertainty stated by the source.

The conditions of data set [1]: Liquid; for mass density: 101.33 kPa, Pycnometric method; for Normal boiling temperature: Ebulliometric method (Recirculating still).
A short description of data set [2]: refractive index (Na D-line) (dimensionless). The settings on record: 101.33 kPa, Liquid, Standard Abbe refractometry.

In the case of `CCCO` [propan-1-ol], the mass density in data set [1] (293.1 K) turned out to be 804 ± 0.7 kg/m3. In data set [1], the Normal boiling temperature is 97.09 ± 0.2 °C. In data set [2] (293.1 K), the refractive index came to 1.386 ± 0.0007.
For the compound `C[S+](C)[O-]` [dimethyl sulfoxide], the mass density in data set [1] (298.1 K) was determined as 1096.1 ± 1 kg/m3. Besides, the Normal boiling temperature in data set [1] was found to be 188.91 ± 0.2 °C. The refractive index in data set [2] (298.1 K) is recorded as 1.4775 ± 0.0007.
On to `CC#N` [acetonitrile], for which the mass density in data set [1] (293.1 K) is on record as 783.1 ± 0.7 kg/m3. Besides, the Normal boiling temperature in data set [1] was 81.50 ± 0.2 °C. Besides, the refractive index in data set [2] (293.1 K) is listed as 1.3449 ± 0.0007.

Usually mass density stands for the mass of a sample divided by its volume. As usually defined, the refractive index is the speed of light in vacuum divided by its phase velocity in the sample.
